# Measurements: patent US20070049564A1 (Wyeth, priority 2005, published 2007)
# Like-named read-outs stand apart in the source and are kept apart here.
# Experiments:
# Assay in all cases: MIC, broth microdilution
# S. aureus GC 6469 = conditions: for MIC: Staphylococcus aureus
# E. coli GC 4560 = conditions: Escherichia coli, GC4560, read-out: MINIMAL INHIBITORY CONCENTRATION MIC, pre-incubated in Water
# E. coli GC 2203 = conditions: Escherichia coli, GC2203, read-out: MINIMAL INHIBITORY CONCENTRATION MIC, pre-incubated in Water
# E. faecium GC 4556 = conditions: for MIC: Enterococcus faecium
# E. coli GC 2235 = conditions: Escherichia coli, GC2235, read-out: MINIMAL INHIBITORY CONCENTRATION MIC, pre-incubated in Water
# E. coli GC 1073 = conditions: Escherichia coli, GC1073, read-out: MINIMAL INHIBITORY CONCENTRATION MIC, pre-incubated in Water
# Procedure: (§1) Antimicrobial susceptibility testing. The in vitro activities of the antibiotics are determined by the broth microdilution method as recommended by the National Committee for Clinical Laboratory Standards (NCCLS) (1). Mueller-Hinton II broth (MHBII)(BBL Cockeysville, Md.) is the medium employed in the testing procedures. Microtiter plates containing serial dilutions of each antimicrobial agent are inoculated with each organism to yield the appropriate density (10^5 CFU/ml) in a 100 μl final volume. The plates are incubated for 18-22 hours at 35° C. in ambient air.
# Representative compounds were first incubated in mouse serum for an hour prior to the in vitro testing against a panel of selected gram-positive and gram-negative bacteria strains. All compounds were also pre-incubated in water for an hour prior to testing as control. Representative compounds of Formula I were incubated in human serum prior to MIC determination.
# E. coli GC 3226 = conditions: Escherichia coli, GC3226, read-out: MINIMAL INHIBITORY CONCENTRATION MIC, pre-incubated in Water
# S. agalactiae GC 4564 = conditions: Streptococcus agalactiae, GC4564, read-out: MINIMAL INHIBITORY CONCENTRATION MIC, pre-incubated in Water
# S. aureus GC 6335 = conditions: for MIC: Staphylococcus aureus
# S. aureus GC 6467 = conditions: Staphylococcus aureus
# E. coli GC 2234 = conditions: Escherichia coli, GC2234, read-out: MINIMAL INHIBITORY CONCENTRATION MIC, pre-incubated in Water
# E. coli GC 4559 = conditions: Escherichia coli, GC4559, read-out: MINIMAL INHIBITORY CONCENTRATION MIC, pre-incubated in Water
# S. typhimurium GC 2172 = conditions: for MIC: Salmonella enterica, TYPHIMURIUM
# E. coli GC 2270 = conditions: Escherichia coli, GC2270, read-out: MINIMAL INHIBITORY CONCENTRATION MIC, pre-incubated in Water
# S. pyogenes GC 4563 = conditions: for MIC: Streptococcus pyogenes
# E. coli GC 2271 = conditions: Escherichia coli, GC2271, read-out: MINIMAL INHIBITORY CONCENTRATION MIC, pre-incubated in Water
# E. coli GC 2233 = conditions: Escherichia coli, GC2233, read-out: MINIMAL INHIBITORY CONCENTRATION MIC, pre-incubated in Water
# E. coli GC 6465 = conditions: Escherichia coli, GC6465, read-out: MINIMAL INHIBITORY CONCENTRATION MIC, pre-incubated in Water
# Procedure: as §1
# Representative compounds were first incubated in mouse serum for an hour prior to the in vitro testing against a panel of selected gram-positive and gram-negative bacteria strains. All compounds were also pre-incubated in water for an hour prior to testing as control.
# S. aureus GC 6466 = conditions: for MIC: Staphylococcus aureus
# S. aureus GC 1079 = conditions: for MIC: Staphylococcus aureus
structure (smiles),measurement,setting,value
"CN(C)c1cc(NC(=O)CN(C(=O)OCOC(=O)CC(C)(C)C)C(C)(C)C)c(O)c2c1C[C@H]1C[C@H]3[C@H](N(C)C)C(O)=C(C(N)=O)C(=O)[C@@]3(O)C(O)=C1C2=O [Example 42, ({[(2-{[(5aR,6aS,7S,10aS)-9-(aminocarbonyl)-4,7-bis(dimethylamino)-1,8,10a,11-tetrahydroxy-10,12-dioxo-5,5a,6,6a,7,10,10a,12-octahydrotetracen-2-yl]amino}-2-oxoethyl)(tert-butyl)amino]carbonyl}oxy)methyl 3,3-dimethylbutanoate]",MIC,"S. aureus GC 6469; GC6469, read-out: MINIMAL INHIBITORY CONCENTRATION MIC, pre-incubated in Mouse Serum",2 µg/mL
same,MIC,"S. aureus GC 6469; GC6469, read-out: MINIMAL INHIBITORY CONCENTRATION MIC, pre-incubated in Water",4 µg/mL
same,MINIMAL INHIBITORY CONCENTRATION MIC,S. aureus GC 6469; pre-incubated in Mouse Serum,4 UG/ML
same,MIC,E. coli GC 4560,8 µg/mL
same,MIC,E. coli GC 2203,> 64 µg/mL
same,MIC,"E. faecium GC 4556; GC4556, read-out: MINIMAL INHIBITORY CONCENTRATION MIC, pre-incubated in Mouse Serum",2 µg/mL
same,MIC,"E. faecium GC 4556; GC4556, read-out: MINIMAL INHIBITORY CONCENTRATION MIC, pre-incubated in Water",8 µg/mL
same,MINIMAL INHIBITORY CONCENTRATION MIC,E. faecium GC 4556; pre-incubated in Mouse Serum,4 UG/ML
same,MIC,E. coli GC 2235,> 64 µg/mL
same,MIC,E. coli GC 1073,> 64 µg/mL
same,MIC,E. coli GC 3226,> 64 µg/mL
same,MIC,S. agalactiae GC 4564,8 µg/mL
same,MIC,"S. aureus GC 6335; GC6335, read-out: MINIMAL INHIBITORY CONCENTRATION MIC, pre-incubated in Mouse Serum",2 µg/mL
same,MIC,"S. aureus GC 6335; GC6335, read-out: MINIMAL INHIBITORY CONCENTRATION MIC, pre-incubated in Water",4 µg/mL
same,MINIMAL INHIBITORY CONCENTRATION MIC,S. aureus GC 6335; pre-incubated in Mouse Serum,4 UG/ML
same,MIC,"S. aureus GC 6467; GC6467, read-out: MINIMAL INHIBITORY CONCENTRATION MIC, pre-incubated in Mouse Serum",4 µg/mL
same,MIC,"S. aureus GC 6467; GC6467, read-out: MINIMAL INHIBITORY CONCENTRATION MIC, pre-incubated in Water",8 µg/mL
same,MIC,E. coli GC 2234,> 64 µg/mL
same,MIC,E. coli GC 4559,> 64 µg/mL
same,MIC,"S. typhimurium GC 2172; read-out: MINIMAL INHIBITORY CONCENTRATION MIC, pre-incubated in Mouse Serum",64 µg/mL
same,MIC,"S. typhimurium GC 2172; read-out: MINIMAL INHIBITORY CONCENTRATION MIC, pre-incubated in Water",> 64 µg/mL
same,MINIMAL INHIBITORY CONCENTRATION MIC,S. typhimurium GC 2172; pre-incubated in Mouse Serum,>64 UG/ML
same,MIC,E. coli GC 2270,> 64 µg/mL
same,MIC,"S. pyogenes GC 4563; GC4563, read-out: MINIMAL INHIBITORY CONCENTRATION MIC, pre-incubated in Mouse Serum",2 µg/mL
same,MIC,"S. pyogenes GC 4563; GC4563, read-out: MINIMAL INHIBITORY CONCENTRATION MIC, pre-incubated in Water",4 µg/mL
same,MINIMAL INHIBITORY CONCENTRATION MIC,S. pyogenes GC 4563; pre-incubated in Mouse Serum,4 UG/ML
same,MIC,E. coli GC 2271,> 64 µg/mL
same,MIC,E. coli GC 2233,> 64 µg/mL
same,MIC,E. coli GC 6465,> 64 µg/mL
same,MIC,"S. aureus GC 6466; GC6466, read-out: MINIMAL INHIBITORY CONCENTRATION MIC, pre-incubated in Mouse Serum",2 µg/mL
same,MIC,"S. aureus GC 6466; GC6466, read-out: MINIMAL INHIBITORY CONCENTRATION MIC, pre-incubated in Water",4 µg/mL
same,MINIMAL INHIBITORY CONCENTRATION MIC,S. aureus GC 6466; pre-incubated in Mouse Serum,4 UG/ML
same,MIC,"S. aureus GC 1079; GC1079, read-out: MINIMAL INHIBITORY CONCENTRATION MIC, pre-incubated in Mouse Serum",2 µg/mL
same,MIC,"S. aureus GC 1079; GC1079, read-out: MINIMAL INHIBITORY CONCENTRATION MIC, pre-incubated in Water",4 µg/mL
same,MINIMAL INHIBITORY CONCENTRATION MIC,S. aureus GC 1079; pre-incubated in Mouse Serum,4 UG/ML
